Measurements reported in patent publication US12582649B2, “Compositions and methods for hair follicle regeneration” (Washington University, priority 2020, dated 2026).
“Also recorded” adds a separate entry of the source.

Key:
[1] = test system: hair follicles; test: Hair follicle regeneration / new hair growth after a single intradermal injection in telogen back skin; assay type: in vivo, mice
Description: (§1) The second telogen of C57BL/6J mice starts at day 49 after birth and it will last around 5 weeks (Muller-Rover et al., 2001). On day 48 after birth, the mice were shaved. On day 49 after birth, wt and Trpv4^−/− mice were intradermally injected with 30-μM GSK1016790A (GSK101, a selective TRPV4 agonist) (50 μl), which is diluted in saline from the 100 mM stock solution. GSK2193874 (GSK219, a selective TRPV4 antagonist) (25 mg·kg^−1, 200 μl dilution in saline from 50 mg·ml^−1 stock solution) (Thorneloe et al., 2012) or PD98059 (10 mg·kg^−1, 200 μl dilution in saline from 37.5 mg·ml^−1 stock solution) was applied through intraperitoneal injection on day 48 after birth or 1 hour prior to GSK1016790A injection. Insulin syringes with 30-G needle (UltiCare) were used for intradermal injection and 1-ml Sub-Q syringes with 26-G needle (BD) were used for intraperitoneal injection. Seventeen days after GSK1016790A injection, the mice were killed and the skin samples of the injection area were collected for analysis. In mice with newly generated hair, generally, there was a small patch of skin with dark color and longer hair shaft at the injection sites compared with that in the surrounding area.
Dorsal skin samples were fixed overnight at 4° C. in Zamboni's fixative (2% paraformaldehyde, 15% [v/v] saturated picric acid, 0.1-M PB, pH 7.3), dehydrated in ethanol, embedded in paraffin and sectioned at 10 μm. Haematoxylin and eosin (H&E) staining was performed according to standard protocols to analyze the hair follicle cycle stages as described, including the length of the hair follicle, the size, and location of dermal papilla and the position of the hair shaft and the inner root sheath (Muller-Rover et al., 2001). For immunofluorescence detection, sections were deparaffinized, rehydrated, and subjected to antigen retrieval in 10-mM citrate buffer (pH 6.0). After blocking, sections were stained with primary antibody against Ki67 (1:1,000; Thermo Fisher Scientific, Cat #PA1-29503, RRID: AB_1955602), phosphop-p44/42 MAPK (1:200; Cell Signaling Technology, Cat #4370S, RRID: AB_2315112), p44/42 MAPK (1:1,000; Cell Signaling Technology, Cat #4695, RRID: AB_390779), keratin 14 (1:1,000; BioLegend, […], RRID: AB_2616962) and keratin 15 (1:1,000; BioLegend, Cat #833901, RRID: AB_2564970) at 4° C. overnight in a humid chamber, followed by incubation for 1 h at room temperature (RT) with Cy3-conjugated secondary antibody (1:500; Jackson ImmunoResearch, Cat #111-005-003, RRID: AB_2337913) and Alexa Fluor 488-conjugated secondary antibody (1:500; Jackson ImmunoResearch, Cat #703-005-155, RRID: AB_2340346). Nuclei were stained with DAPI (SouthernBiotech). The Immuno-related procedures used comply with the recommendations made by the British Journal of Pharmacology Alexander et al., 2018.

[2] = test system: hair follicle keratinocytes; test: Ki67 immunofluorescence staining of back skin sections (proliferation of hair follicle keratinocytes and stem cells); assay type: in vivo; conditions: Trpv4+/+ mice, 48 h after single intradermal injection, vs vehicle
Description: as §1, with “Seventeen days after GSK1016790A injection, the mice were killed and the skin samples of the injection area were collected for analysis.” left out
Dorsal skin samples were fixed overnight at 4° C. in Zamboni's fixative (2% paraformaldehyde, 15% [v/v] saturated picric acid, 0.1-M PB, pH 7.3), dehydrated in ethanol, embedded in paraffin and sectioned at 10 μm. […]

[3] = test system: cultured human hair follicles; conditions: cultured human hair follicles ex vivo; cited from earlier work
[4] = test system: hair follicles; test: Topical application on tape-stripped shaved back skin, hair growth; assay type: in vivo, mice
Description: FIG. 10. […] Images were taken on day 12 after GSK101 treatment.
A TRPV4-dependent increase in hair growth was observed (FIG. 10).
Tape stripping was used to remove the stratum corneum to facilitate GSK101 entry into the skin. The agent can be applied with no additional agent or skin treatment method. The effect was removed by genetic ablation of the TRPV4 function.

[5] = test system: Bmp6, Fgf18, Fgf7, Wnt16 and Nog mRNA; test: Quantitative RT-PCR of whole skin lysates for anagen-inhibiting and anagen-promoting factors; assay type: in vivo, mice
Description: as §1
For real-time PCR, skin sample was collected 24 h after GSK1016790A injection. Total RNA was extracted from mouse skin tissue using RNeasy kit (Qiagen, Germantown, MD, […]) according to the manufacturer's instructions. RNA was treated with DNase I (Invitrogen, Carlsbad, CA, USA), and the cDNA was synthesized in vitro using ThermoScript® RT-PCR System kit (Invitrogen). Reactions were carried out in a volume of 20 μl per reaction containing 10-μl SYBR Green master mix (2×) (Roche, Indianapolis, IN, USA), 0.5-μl cDNA, 1.2-μl 5-μM primer mix, and 8.3-μl water using StepOnePlus real-time PCR system (Applied Biosystems, Foster City, CA, USA). Relative expression of genes was normalized to GAPDH and calculated using the 2^−ΔΔct methods.

[6] = test system: human epidermal keratinocytes HaCaT cells; conditions: cited from earlier work
[7] = test system: ERK1/2; test: ERK1/2 phosphorylation in skin (western blot, immunofluorescence); assay type: in vivo, mice; conditions: for effect of pretreatment on GSK1016790A-induced ERK1/2 phosphorylation: intraperitoneal pretreatment one hour before GSK1016790A, skin harvested 15 min after
Description: as §1, with “Seventeen days after GSK1016790A injection, the mice were killed and the skin samples of the injection area were collected for analysis.” left out
(§2) Dorsal skin samples were fixed overnight at 4° C. in Zamboni's fixative (2% paraformaldehyde, 15% [v/v] saturated picric acid, 0.1-M PB, pH 7.3), dehydrated in ethanol, embedded in paraffin and sectioned at 10 μm. Haematoxylin and eosin (H&E) staining was performed according to standard protocols to analyze the hair follicle cycle stages as described, including the length of the hair follicle, the size, and location of dermal papilla and the position of the hair shaft and the inner root sheath (Muller-Rover et al., 2001). For immunofluorescence detection, sections were deparaffinized, rehydrated, and subjected to antigen retrieval in 10-mM citrate buffer (pH 6.0). […]
The skin was lysed in RIPA lysis and extraction buffer (Thermo Fisher Scientific, USA). Following cell protein quantitation, 10 μg of protein per sample were subjected to 12% SDS-PAGE. […]

[8] = target: T1, TRPV4 (Mus musculus, UniProt Q9EPK8); test: Normal hair follicle cycling under pharmacological inhibition of TRPV4 (H&E of back skin); assay type: in vivo; conditions: Trpv4+/+ mice treated with GSK219
T1 construct: back skin sections from Trpv4^+/+ mice, Trpv4^+/+ mice treated with GSK219 and Trpv4^−/− mice; from tissue; host or cells: back skin of living wild-type C57BL/6J (Trpv4+/+) mice
T1 sequence (Q9EPK8 whole entry): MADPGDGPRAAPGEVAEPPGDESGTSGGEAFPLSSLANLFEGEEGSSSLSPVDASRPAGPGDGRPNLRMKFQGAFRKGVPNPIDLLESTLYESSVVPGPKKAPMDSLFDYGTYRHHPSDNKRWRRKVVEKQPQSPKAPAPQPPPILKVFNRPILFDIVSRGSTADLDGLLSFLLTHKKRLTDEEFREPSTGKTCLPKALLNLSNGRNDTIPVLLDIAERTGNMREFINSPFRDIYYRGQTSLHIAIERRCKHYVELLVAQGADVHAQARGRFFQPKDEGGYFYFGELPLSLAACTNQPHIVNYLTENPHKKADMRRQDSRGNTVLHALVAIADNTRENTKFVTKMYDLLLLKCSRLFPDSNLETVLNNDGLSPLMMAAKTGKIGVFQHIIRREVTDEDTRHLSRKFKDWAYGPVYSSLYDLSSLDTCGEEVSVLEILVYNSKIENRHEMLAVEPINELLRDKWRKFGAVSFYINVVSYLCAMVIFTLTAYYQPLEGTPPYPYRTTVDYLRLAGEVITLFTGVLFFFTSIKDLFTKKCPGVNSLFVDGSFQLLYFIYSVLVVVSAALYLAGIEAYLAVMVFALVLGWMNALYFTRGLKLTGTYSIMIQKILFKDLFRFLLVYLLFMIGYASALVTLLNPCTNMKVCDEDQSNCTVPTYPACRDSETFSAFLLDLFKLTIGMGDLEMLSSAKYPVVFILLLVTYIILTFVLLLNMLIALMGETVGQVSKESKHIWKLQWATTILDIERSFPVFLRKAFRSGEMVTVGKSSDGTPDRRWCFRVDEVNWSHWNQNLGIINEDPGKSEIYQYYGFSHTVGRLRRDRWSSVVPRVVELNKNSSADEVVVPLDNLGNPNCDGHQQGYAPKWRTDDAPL
Description: FIG. 6. Top: hair growth cycle in mice. Bottom: representative images of hematoxylin and eosin (H&E) staining of back skin sections from Trpv4^+/+ mice, Trpv4^+/+ mice treated with GSK219 and Trpv4^−/− mice on Day 15, 21, 36, 40, 49. Scale bar=100 μm.
as §2

[9] = Cre+ K14Cre, Trpv4f/f mice vs wt
[10] = Cre+ K14Cre, Trpv4f/f mice, after injection
[11] = Trpv4+/+ mice, whole skin, 24 h after injection

CC(C)C[C@H](NC(=O)c1cc2ccccc2s1)C(=O)N1CCN(C(=O)[C@H](CO)NS(=O)(=O)c2ccc(Cl)cc2Cl)CC1 [GSK1016790A, N-((1S)-1-{[4-((2S)-2-{[(2,4-dichlorophenyl)sulfonyl]amino}-3-hydroxypropanoyl)-1-piperazinyl]carbonyl}-3-methylbutyl)-1-benzothiophene-2-carboxamide]
new hair growth (newly generated hair coat) at the injection site ([1]; 7-week-old wt (Trpv4+/+) mice, single intradermal injection (30 μM, 50 μl), 17 days after injection, vs vehicle): newly generated hair coat could be clearly observed at the injection site in a dose-dependent manner; also recorded: persistently induced hair growth | hair regeneration in macrophage-specific TRPV4 conditional KO mice ([1]; Cx3cr1Cre, Trpv4f/f mice vs Cre− wt littermates, single intradermal injection): comparable hair regeneration | hair regeneration in keratinocyte-specific TRPV4 conditional KO mice ([1]; K14Cre, Trpv4f/f mice, single intradermal injection): completely absent | GSK1016790A-induced hair regeneration in global TRPV4 KO mice ([1]; Trpv4−/− mice, single intradermal injection): completely absent | hair follicle elongation (hair follicle length) ([1]; wt mice, single intradermal injection, H&E of back skin, vs vehicle): more than fourfold | hair cycle stage of hair follicles ([1]; wt mice, single intradermal injection, vehicle: telogen or anagen I): most of the hair follicles had entered anagen Ill-VI phases | number of Ki67-positive K14-expressing hair follicle keratinocytes [2]: significantly increased; also recorded: increase | number of Ki67-positive K15-expressing hair follicle stem cells in the bulge [2]: increased number; also recorded: increase | number of apoptotic cells [3]: increased | ratio of proliferating cells [3]: decreased | hair growth after topical application ([4]; 100 μM applied once, tape stripping of shaved back, day 12, vs vehicle): facilitate hair growth; also recorded: increased hair growth | hair growth effect of topical application under genetic ablation of TRPV4 function ([4]; TRPV4 ablated mice, tape stripping): removed | Bmp6 mRNA expression level ([5]; Cre+ K14Cre, Trpv4f/f mice): did not affect | Fgf18 mRNA expression level ([5]; Cre+ K14Cre, Trpv4f/f mice): did not affect | Fgf7 expression compared with wt mice injected with GSK1016790A [5, 9]: significantly decreased | Nog expression compared with wt mice injected with GSK1016790A [5, 9]: significantly decreased | Wnt16 expression compared with wt mice injected with GSK1016790A [5, 9]: significantly decreased | Fgf7 expression [5, 10]: still increased | Nog expression [5, 10]: still increased | Wnt16 expression [5, 10]: still increased | Bmp6 mRNA transcripts [5, 11]: significant decrease | Fgf7 mRNA transcripts [5, 11]: markedly increased | Fgf18 mRNA transcripts [5, 11]: significant decrease | Nog mRNA transcripts [5, 11]: markedly increased | Wnt16 mRNA transcripts [5, 11]: markedly increased | GSK1016790A-induced changes in Bmp6, Fgf18, Fgf7, Wnt16 and Nog expression under genetic ablation of TRPV4 ([5]; Trpv4−/− mice, 30 μM intradermal, 24 h): significantly attenuated | membrane currents ([6]; HaCaT cells (PMID: 29293584)): activated membrane currents | IL-6 production ([6]; HaCaT cells (PMID: 30022772)): induced | IL-8 production ([6]; HaCaT cells (PMID: 30022772)): induced | ERK1/2 phosphorylation ([7]; 15 min after a single intradermal injection, skin at injection site): significantly increased

COc1cccc(-c2cc(=O)c3ccccc3o2)c1N [PD98059]
hair growth after GSK1016790A injection in pretreated mice ([1]; PD98059 10 mg·kg−1 intraperitoneal pretreatment, 17 days after GSK1016790A injection): completely absent | effect of pretreatment on GSK1016790A-induced decrease of Bmp6 and Fgf18 and increase of Fgf7, Wnt16 and Nog expression ([5]; PD98059 pretreatment vs vehicle control): completely reversed | effect of pretreatment on GSK1016790A-induced ERK1/2 phosphorylation [7]: severely attenuated

O=C(NC1(c2ccccc2)CC1)c1c(CN2CCC(N3CCCCC3)CC2)c(-c2cccc(C(F)(F)F)c2)nc2cc(Br)ccc12 [GSK2193874]
effect of pretreatment on GSK1016790A-induced hair regeneration ([1]; GSK2193874 25 mg·kg−1 intraperitoneal pretreatment, wt mice): completely abolished | effect of pretreatment on GSK1016790A-induced changes in Bmp6, Fgf18, Fgf7, Wnt16 and Nog expression ([5]; GSK2193874 pretreatment, Trpv4+/+ mice): significantly attenuated | effect of pretreatment on GSK1016790A-induced ERK1/2 phosphorylation [7]: severely attenuated | normal transition of first telogen to second anagen [8]: no effect
